How the values were obtained:
Type in all cases: cell-based
K. pneumoniae [1] = assay: conventional lab procedures [CLP], resistance of bacterial isolates; details: profile r19 of Table 2
Description: (§1) The same specimens were examined using conventional lab procedures [CLP] that determined the identity of the bacterial isolates and their resistance to the above beta-lactams.

Morg. morganii [2] = assay: as above; details: 1 sample (r23)
Description: as §1

E. coli [3] = assay: ART strip (Antibiotics Resistance Test), iodometric detection of beta-lactam hydrolysis by un-cultured urine sample pellets
Experimental: (§2) Filter paper (Whatman no. 3) strips impregnated with 50 mM potassium iodide and 10 mM iodine in 0.75% aqueous starch solution were divided into 6 test areas. Appropriate antibiotic substrates were prepared at a final concentration of 20 mg/mL. Each test area was impregnated with 30 μL of the appropriate solution. The strips were then dried in a lyophilizer and stored with a desiccant at 4° C.
(§3) One mL urine samples were spun 2 minutes at 3000 RPM in room temperature. Supernatants were removed and aliquots of the resulting pellets were streaked on standard slides.
(§4) The product of the enzymatic degradation of a beta-lactam antibiotic removes the iodine from the ART strip and causes local decolorization in that strip. Typically, a detection kit consists of two slides, as illustrated in FIG. 2. The bottom slide is streaked with the sample to be tested. The top slide (lid) carries the ART strip which is activated when each test area on the strip receives 25 μL of the activator solution consisting of 40 mg gelatin in 100 mL phosphate buffer pH 6.5. The test starts when the top slide carrying the freshly activated ART strip contacts the bottom slide carrying the sample. It may be carried out at ambient temperatures but will be accelerated by warming-up to 41° C. […] Result is confirmed if no decolorization took place in the absence of the bacteria (the background of that test area) or in the absence of the antibiotic (as in Test Area 2 in FIG. 1).
(§5) One mL urine sample pellets were collected as described in Example 1 and each streaked on a slide. The strip of the invention (termed ART for Antibiotics Resistance Test) was used to test for beta-lactamase and its ability to degrade Ceftazidime [Caz], Ceftriaxone [Cro], Cefuroxime [Cxm] and Ampicillin [Amp]. The strip, containing iodine and starch and divided to areas containing each of the abovementioned antibiotics, and attached to a plain slide, was activated as shown above, and placed on the streaked slide. After 5-15 minutes at 33° C.-38° C. the slide was scanned and recorded.

K. pneumoniae [4] = assay: ART strip test on urine sample pellets
Experimental: as §2, §3, §4, §5

Citr. koseri = assay: ART strip test on urine sample pellets; details: 2 samples (r25)
Experimental: as §2, §3, §4, §5

Prot. mirabilis [5] = assay: ART strip test on urine sample pellets
Experimental: as §2, §3, §4, §5

K. oxytoca = assay: ART strip test on urine sample pellets
Experimental: as §2, §3, §4, §5

E. faecalis = assay: ART strip test on urine sample pellets; details: 4 samples (r27)
Experimental: as §2, §3, §4, §5

Staphylococcus sp. = assay: ART strip test on urine sample pellets
Experimental: as §2, §3, §4, §5

Morg. morganii [6] = assay: ART strip test on urine sample pellets
Experimental: as §2, §3, §4, §5

Acinetobacter sp. = assay: ART strip test on urine sample pellets; details: 1 sample (r29)
Experimental: as §2, §3, §4, §5

Str. agalactiae = assay: ART strip test on urine sample pellets; details: 3 samples (r34)
Experimental: as §2, §3, §4, §5

K. pneumoniae [7] = assay: modular antibiotic resistance detection kit on urine sample pellets
Experimental: (§6) A modular antibiotic resistance detection kit offers more flexibility in testing different resistance profiles. In the modular detection kit exemplified here, the ART strip is replaced by filter paper segments glued to a slide, each segment impregnated with a single antibiotic.
(§7) Specifically, pathogen samples were tested using filter papers impregnated with the following beta-lactam antibiotics: ampicillin [Amp], augmentin (a combination of amoxicillin and clavulanic acid) [AMC], clavulanic acid (Reduced Resistance test) [RR], ceftazidime [Caz] and either imipenem or meropenem [CPM]. The impregnation details of the fragments were as in the previous Examples.
(§8) Filter paper (Whatman no. 3] strips impregnated with Assay Reagent solution were used as “indicator strips”. An indicator strip was attached to the plain top slide as shown in FIG. 2. Aliquots of the pellets of the urine samples tested were placed on each of the segments. The test was started by placing the activated indicator-strip-slide, on the modular antibiotic slide. The scan results obtained after 5-10 min at 38° C. are illustrated schematically in FIG. 2 where all segments, except for the negative (no antibiotic) control, show decolorization indicating resistance to each antibiotic in that array.
(§9) Samples resistant to ceftazidime but affected by clavulanic acid were assumed to contain extended spectrum beta lactamases (ESBLs). The ‘Confirmed’ detections column summarizes the number of CLP-validated results out of the total findings recorded.

Citrobacter freundii = assay: as above; details: profile r23, ESBL Pos; also: key: R = resistant; S = sensitive
Experimental: as §6, §7, §8, §9

Proteus mirabilis = assay: as above
Experimental: as §6, §7, §8, §9

E. coli [8] = assay: as above
Experimental: as §6, §7, §8, §9

E. coli [9] = assay: conventional lab procedures [CLP], resistance of bacterial isolates; details: profile r9 of Table 2; also: key: R = resistant; S = sensitive
Description: as §1

[10] = system: carbapenem-resistant Enterobacteriaceae; assay: modular kit for detection of CRE in urine sample; details: CRE-containing urine sample pellets; 12 minutes at 38° C.
Experimental: The kit constructed as a twin-slide [as illustrated by FIG. 1] carries an “OCTET” strip impregnated [as in Example 1] with an array of eight beta-lactam antibiotics and 1 non-beta-lactam control [S].
To illustrate the life-saving potential of the proposed technology which eliminates delays in diagnosis of carbapenem-resistant members of the Enterobacteriaceae family (CRE), a CRE sample was analyzed using the invention's modular kit, containing ampicillin, ceftazidime, augmentin, cefotaxime, imipenem, cefuroxime, meropenem and ceftriaxone as beta-lactamase substrates and a non-beta-lactam antibiotic, served as a negative control.
Filter paper segments were glued to a slide, each segment impregnated with a single antibiotic of the abovementioned antibiotics and streaked with carbapenem-resistant Enterobacteriaceae-containing urine sample pellets, prepared as described in Examples 1 to 3. The slide was contacted with indicator strips attached to a slide.

Prot. mirabilis [11] = assay: conventional lab procedures [CLP], resistance of bacterial isolates; details: 1 sample (r18)
Description: as §1

[12] = 28 samples (r6), 5-15 minutes at 33° C.-38° C.
[13] = K. pneumoniae (5 samples), profile r17, ESBL Pos
[14] = K. pneumoniae, profile r18, ESBL Pos
[15] = K. pneumoniae, profile r20, ESBL Pos
[16] = K. pneumoniae, profile r21, ESBL Neg
[17] = Proteus mirabilis (3 samples), profile r25, ESBL Pos
[18] = Proteus mirabilis, profile r26, ESBL Pos
[19] = Proteus mirabilis, profile r27, ESBL Neg
[20] = E. coli (16 samples), profile r6, ESBL Neg, 5-10 min at 38° C.

| Molecule | resistance profile predicted by ART (E. coli [3]; 3 samples (r8), MDR) | resistance profile predicted by ART (E. coli [3]; 12 samples (r7)) | resistance profile predicted by ART (E. coli [3]; [12]) | resistance profile predicted by ART (K. pneumoniae [4]; 1 sample (r12)) | resistance found with modular kit (K. pneumoniae [7]; [13]) | resistance found with modular kit (K. pneumoniae [7]; [14]) | resistance found with modular kit (K. pneumoniae [7]; K. pneumoniae, profile r19) | resistance found with modular kit (K. pneumoniae [7]; [15]) | resistance found with modular kit (K. pneumoniae [7]; [16]) | resistance found with modular kit (Citrobacter freundii) | resistance found with modular kit (Proteus mirabilis; [17]) | resistance found with modular kit (Proteus mirabilis; [18]) | resistance found with modular kit (Proteus mirabilis; [19]) | resistance found with modular kit (E. coli [8]; [20]) | resistance found with modular kit (E. coli [8]; E. coli, profile r9, ESBL Neg) | resistance found with modular kit (E. coli [8]; E. coli, profile r10, ESBL Neg) | resistance found with modular kit (E. coli [8]; E. coli, profile r11, ESBL Neg) | resistance found with modular kit (E. coli [8]; E. coli, profile r12, ESBL Neg) | resistance found with modular kit (E. coli [8]; E. coli, profile r14, ESBL Pos) | resistance found with modular kit (E. coli [8]; E. coli, profile r15, ESBL Pos) | further results |
| --- | --- | --- | --- | --- | --- | --- | --- | --- | --- | --- | --- | --- | --- | --- | --- | --- | --- | --- | --- | --- | --- |
| CC(C)(O/N=C(\C(=O)N[C@@H]1C(=O)N2C(C(=O)[O-])=C(C[n+]3ccccc3)CS[C@H]12)c1csc(N)n1)C(=O)O [Caz, Ceftazidime] | R | S | S | S | R | R | R | R | S | R | R | R | S | S | S | S | S | S | R | R | CLP result differing from kit (in brackets) (K. pneumoniae [1]): S; CLP result differing from ART (in brackets) (Morg. morganii [2]): R; resistance profile predicted by ART (K. pneumoniae [4]; 8 samples (r11)): S; resistance profile predicted by ART (K. pneumoniae [4]; 11 samples (r10), MDR): R; resistance profile predicted by ART (Citr. koseri): S; resistance profile predicted by ART (Prot. mirabilis [5]; 1 sample (r18)): S; resistance profile predicted by ART (Prot. mirabilis [5]; 1 sample (r19)): S; resistance profile predicted by ART (Prot. mirabilis [5]; 1 sample (r20)): R; resistance profile predicted by ART (Prot. mirabilis [5]; 6 samples (r17)): S; resistance profile predicted by ART (K. oxytoca; 1 sample (r15)): S; resistance profile predicted by ART (K. oxytoca; 3 samples (r14)): S; resistance profile predicted by ART (E. faecalis): S[nd]; resistance profile predicted by ART (Staphylococcus sp.; 1 sample (r31)): S; resistance profile predicted by ART (Staphylococcus sp.; 1 sample (r32)): S; resistance profile predicted by ART (Morg. morganii [6]; 1 sample (r22)): S; resistance profile predicted by ART (Morg. morganii [6]; 1 sample (r23)): S; resistance profile predicted by ART (Acinetobacter sp.): S; resistance profile predicted by ART (Str. agalactiae): S[nd] |
| augmentin [AMC] | – | – | – | – | I | R | R | R | S | R | I | S | R | S | R | I | I | I | R | R | CLP result differing from kit (in brackets) (E. coli [9]): S; hydrolysis by the tested specimen (decolorization) [10]: hydrolysis; resistance found with modular kit (E. coli [8]; E. coli, profile r7): S; resistance found with modular kit (E. coli [8]; E. coli, profile r8): S; resistance found with modular kit (E. coli [8]; E. coli, profile r13): R |
| CC1(C)S[C@@H]2[C@H](NC(=O)[C@H](N)c3ccccc3)C(=O)N2[C@H]1C(=O)O [Amp, Ampicillin] | R | S | R | R | R | R | R | R | R | R | R | R | R | S | R | R | R | R | R | R | CLP result differing from ART (in brackets) (Prot. mirabilis [11]): S; resistance profile predicted by ART (K. pneumoniae [4]; 8 samples (r11)): R; resistance profile predicted by ART (K. pneumoniae [4]; 11 samples (r10), MDR): R; resistance profile predicted by ART (Citr. koseri): R; resistance profile predicted by ART (Prot. mirabilis [5]; 1 sample (r18)): R; resistance profile predicted by ART (Prot. mirabilis [5]; 1 sample (r19)): R; resistance profile predicted by ART (Prot. mirabilis [5]; 1 sample (r20)): R; resistance profile predicted by ART (Prot. mirabilis [5]; 6 samples (r17)): R; resistance profile predicted by ART (K. oxytoca; 1 sample (r15)): R; resistance profile predicted by ART (K. oxytoca; 3 samples (r14)): R; resistance profile predicted by ART (E. faecalis): S; resistance profile predicted by ART (Staphylococcus sp.; 1 sample (r31)): R; resistance profile predicted by ART (Staphylococcus sp.; 1 sample (r32)): S; resistance profile predicted by ART (Morg. morganii [6]; 1 sample (r22)): R; resistance profile predicted by ART (Morg. morganii [6]; 1 sample (r23)): R; resistance profile predicted by ART (Acinetobacter sp.): S; resistance profile predicted by ART (Str. agalactiae): S; resistance found with modular kit (E. coli [8]; E. coli, profile r7): S; resistance found with modular kit (E. coli [8]; E. coli, profile r8): R; resistance found with modular kit (E. coli [8]; E. coli, profile r13): R |

From patent US20110245105A1, “Methods and Kits for Direct Detection and Susceptibility Profiling of Beta-Lactam Resistant Bacteria” (YISSUM RESEARCH DEVELOPMENT COMPANY OF THE HEBREW …, priority 2008, published 2011)
